# Measured values from ChEMBL document CHEMBL1131763, “Thiazole-derived potent, highly bioavailable short duration growth hormone secretagogues” (Bioorg Med Chem Lett, 1999).
# pEC50: −log10 of the molar value. The source made the active and inactive calls. No cut-off for these calls is given here.
# Tests used:
# Type in all cases: functional, organism-based
# [1] = organism: Rattus norvegicus; experiment: Concentration required for determining half-maximal release of growth hormone(GH) in the rat pituitary cell assay; settings: Pituitary gland cell
# [2] = system: Canis familiaris; experiment: In vivo growth hormone(GH) release in beagles after intravenous administration; NA- Not active; settings: Canis lupus familiaris
# [3] = system: Canis familiaris; experiment: In vivo growth hormone(GH) release in beagles after intravenously administered dose of 0.01 mg/kg; 1/1; set-up: dose 0.01 mg/kg; settings: Canis lupus familiaris
# [4] = system: Canis familiaris; experiment: In vivo growth hormone(GH) release in beagles after orally administered dose of 0.25 mg/kg; 6/8; set-up: dose 0.25 mg/kg; settings: Canis lupus familiaris
# [5] = system: Canis familiaris; experiment: In vivo growth hormone(GH) release in beagles after orally administered dose of 0.5 mg/kg;8/8; set-up: dose 0.5 mg/kg; settings: Canis lupus familiaris
SMILES,pEC50 [1],other results
CCOC(=O)C1(Cc2cscn2)CCCN(C(=O)[C@@H](Cc2c[nH]c3ccccc23)NC(=O)C(C)(C)N)C1 (stereo partly drawn),9.00,
CCOC(=O)[C@]1(Cc2ccccn2)CCCN(C(=O)[C@@H](Cc2c[nH]c3ccccc23)NC(=O)C(C)(C)N)C1,9.70,
CCOC(=O)C1(Cc2ccncc2)CCCN(C(=O)[C@@H](Cc2c[nH]c3ccccc23)NC(=O)C(C)(C)N)C1 (stereo partly drawn),8.36,
CCOC(=O)C1(Cc2ccccn2)CCCN(C(=O)[C@@H](Cc2c[nH]c3ccccc23)NC(=O)C(C)(C)N)C1 (stereo partly drawn),9.30,
CC(C)(N)C(=O)N[C@H](Cc1c[nH]c2ccccc12)C(=O)N1CCC[C@](Cc2cscn2)(C(=O)O)C1,< 6.30,
CCOC(=O)C1(Cc2cncs2)CCCN(C(=O)[C@@H](Cc2c[nH]c3ccccc23)NC(=O)C(C)(C)N)C1 (stereo partly drawn),8.21,Response [2]: inactive
CCOC(=O)C1(Cc2cccnc2)CCCN(C(=O)[C@@H](Cc2c[nH]c3ccccc23)NC(=O)C(C)(C)N)C1 (stereo partly drawn),8.66,
CCOC(=O)[C@@]1(Cc2ccccn2)CCCN(C(=O)[C@@H](Cc2c[nH]c3ccccc23)NC(=O)C(C)(C)N)C1,8.52,
CCOC(=O)[C@@]1(Cc2cscn2)CCCN(C(=O)[C@@H](Cc2c[nH]c3ccccc23)NC(=O)C(C)(C)N)C1,7.82,
CCOC(=O)[C@]1(Cc2cscn2)CCCN(C(=O)[C@@H](Cc2c[nH]c3ccccc23)NC(=O)C(C)(C)N)C1,9.30,
CCOC(=O)C1(Cc2nccs2)CCCN(C(=O)[C@@H](Cc2c[nH]c3ccccc23)NC(=O)C(C)(C)N)C1 (stereo partly drawn),8.38,
CC(C)(N)C(=O)N[C@H](Cc1c[nH]c2ccccc12)C(=O)N1CCC[C@](Cc2ccccc2)(C(=O)O)C1,6.72,
CC(C)(N)C(=O)N[C@H](Cc1c[nH]c2ccccc12)C(=O)N1CCC[C@](Cc2ccccn2)(C(=O)O)C1,6.24,
CCOC(=O)[C@@]1(Cc2ccccc2)CCCN(C(=O)[C@@H](Cc2c[nH]c3ccccc23)NC(=O)C(C)(C)N)C1,8.80,Response [3]: inactive; Response [4]: Partially active; Response [5]: Active
